Experimental data reported in ChEMBL document CHEMBL4387743, “Design, synthesis and structure activity relationships of indazole and indole derivatives as potent glucagon receptor antagonists” (Bioorg Med Chem Lett, 2019).
Values belong to the compound of their own block, whether it stands above or below them.

Experiments:
[1] = Elimination half life in C57 black mouse at 20 mg/kg, po; type: ADME, organism-based; conditions: in vivo, read-out: beta t1/2 (converted)
[2] = Clearance in C57 black mouse at 5 mg/kg, iv; type: ADME, organism-based; conditions: in vivo
[3] = Oral bioavailability in C57 black mouse at 20 mg/kg; type: ADME, organism-based; conditions: in vivo
[4] = Cmax in C57 black mouse at 20 mg/kg, po; type: ADME, organism-based; set-up: dose 20 mg/kg, route oral; conditions: in vivo
[5] = Elimination half life in C57 black mouse at 5 mg/kg, iv; type: ADME, organism-based; conditions: in vivo, read-out: beta t1/2 (converted)
[6] = AUClast in C57 black mouse at 20 mg/kg, po; type: ADME, organism-based; set-up: dose 20 mg/kg, time 0 - last, route oral; conditions: in vivo
[7] = Volume of distribution at steady state in C57 black mouse at 5 mg/kg, iv; type: ADME, organism-based; conditions: in vivo, read-out: Vdss
Glucagon receptor = Glucagon receptor (Homo sapiens, UniProt P47871); test: Antagonist activity at full length human recombinant GCGR transfected in HEK293 cells assessed as inhibition of glucagon-stimulated cAMP by LANCE assay; type: functional, cell-based
Sequence of Glucagon receptor (P47871 whole entry): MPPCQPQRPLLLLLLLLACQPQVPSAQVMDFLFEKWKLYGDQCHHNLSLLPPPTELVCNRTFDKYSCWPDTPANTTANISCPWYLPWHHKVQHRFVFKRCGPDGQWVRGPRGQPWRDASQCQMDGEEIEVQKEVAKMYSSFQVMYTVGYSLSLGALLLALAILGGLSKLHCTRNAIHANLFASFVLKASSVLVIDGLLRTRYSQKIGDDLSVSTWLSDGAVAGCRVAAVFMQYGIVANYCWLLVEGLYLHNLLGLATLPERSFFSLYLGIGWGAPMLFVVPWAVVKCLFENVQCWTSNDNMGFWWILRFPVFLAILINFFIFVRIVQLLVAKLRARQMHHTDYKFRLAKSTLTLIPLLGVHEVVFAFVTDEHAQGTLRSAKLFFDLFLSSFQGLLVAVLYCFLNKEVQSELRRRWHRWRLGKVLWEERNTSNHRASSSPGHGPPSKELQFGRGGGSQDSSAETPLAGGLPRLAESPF

[8] = Clearance in Sprague Dawley rat at 2 mg/kg, iv; type: ADME, organism-based; conditions: in vivo
[9] = Elimination half life in Sprague Dawley rat at 2 mg/kg, iv; type: ADME, organism-based; conditions: in vivo, read-out: beta t1/2 (converted)
[10] = Oral bioavailability in Sprague Dawley rat at 10 mg/kg; type: ADME, organism-based; conditions: in vivo
[11] = Cmax in Sprague Dawley rat at 10 mg/kg, po; type: ADME, organism-based; set-up: dose 10 mg/kg, route oral; conditions: in vivo
[12] = Volume of distribution at steady state in Sprague Dawley rat at 2 mg/kg, iv; type: ADME, organism-based; conditions: in vivo, read-out: Vdss
[13] = Elimination half life in Sprague Dawley rat at 10 mg/kg, po; type: ADME, organism-based; conditions: in vivo, read-out: beta t1/2 (converted)
[14] = AUClast in Sprague Dawley rat at 10 mg/kg, po; type: ADME, organism-based; set-up: dose 10 mg/kg, route oral, time 0 - last; conditions: in vivo

half-life [1]: 288 min | clearance [2]: 4.83 mL/min/kg | bioavailability [3]: 94.7% | Cmax [4]: 11.1 µM | half-life [5]: 300 min | AUC(0-t) [6]: 111 µM·h | Vd [7]: 1.85 L/kg
Structure (SMILES): Cc1cc(C(F)(F)F)ccc1-c1cc2cnn(C(CC(C)C)c3ccc(C(=O)NCCC(=O)O)nc3)c2cc1C (racemic)

Ki (Glucagon receptor): 285 to 650 nM
Structure (SMILES): CC(C)CC(c1ccc(C(=O)NCCC(=O)O)cc1)n1ncc2cc(-c3ccc(OC(F)(F)F)cc3)ccc21 (racemic)

Ki (Glucagon receptor): 3000 nM
Structure (SMILES): CC(C)CC(c1ccc(C(=O)NCCC(=O)O)cc1)n1ncc2cc(-c3ccc(N4CCOCC4)cc3)ccc21 (racemic)

Ki (Glucagon receptor): 125 nM
Structure (SMILES): CC(C)CC(c1ccc(C(=O)NCCC(=O)O)cc1)n1ncc2cc(-c3ccc(C(C)(C)C)cc3)ccc21 (racemic)

Ki (Glucagon receptor): 110 nM
Structure (SMILES): CC(C)CC(c1ccc(C(=O)NCCC(=O)O)cc1)n1ccc2cc(-c3ccc(C(C)(C)C)cc3)ccc21 (racemic)

Ki (Glucagon receptor): 115 nM | half-life [1]: 234 min | clearance [8]: 12.2 mL/min/kg | half-life [9]: 276 min | clearance [2]: 3.77 mL/min/kg | bioavailability [10]: 51.7% | bioavailability [3]: 68.7% | Cmax [11]: 1400 nM | Vd [12]: 3.65 L/kg | Cmax [4]: 8.1 µM | half-life [5]: 222 min | half-life [13]: 312 min | AUC(0-t) [6]: 116 µM·h | AUC(0-t) [14]: 14.3 µM·h | Vd [7]: 1.05 L/kg
Structure (SMILES): CC(C)CC(c1ccc(C(=O)NCCC(=O)O)cc1)n1ccc2cc(-c3ccc(C(F)(F)F)cc3)ccc21 (racemic)

Ki (Glucagon receptor): > 2600 nM
Structure (SMILES): Cc1cc(-c2ccc(C(C)(C)C)cc2)cc2ccn(C(CC(C)C)c3ccc(C(=O)NCCC(=O)O)nc3)c12 (racemic)

Ki (Glucagon receptor): 700 nM
Structure (SMILES): Cc1cc(C(F)(F)F)ccc1-c1cc(F)c2c(ccn2C(CC(C)C)c2ccc(C(=O)NCCC(=O)O)cc2)c1C (racemic)

Ki (Glucagon receptor): 1340 nM
Structure (SMILES): Cc1cc(-c2ccc(C(C)(C)C)cc2)cc2cn(C(CC(C)C)c3ccc(C(=O)NCCC(=O)O)cc3)nc12 (racemic)

Ki (Glucagon receptor): 85 nM
Structure (SMILES): Cc1cc(C(F)(F)F)ccc1-c1ccc2c(ccn2C(CC(C)C)c2ccc(C(=O)NCCC(=O)O)cc2)c1 (racemic)

Ki (Glucagon receptor): 1250 nM
Structure (SMILES): CC(C)CC(c1ccc(C(=O)NCCC(=O)O)cc1)n1ncc2cc(-c3ccc(N4CCN(C)CC4)cc3)ccc21 (racemic)

Ki (Glucagon receptor): 19 nM | clearance [2]: 1.89 mL/min/kg | bioavailability [3]: 97.7% | Cmax [4]: 18.5 µM | half-life [5]: 396 min | AUC(0-t) [6]: 290 µM·h | Vd [7]: 0.9 L/kg
Structure (SMILES): Cc1cc(C(F)(F)F)ccc1-c1ccc2nn(C(CC(C)C)c3ccc(C(=O)NCCC(=O)O)cc3)cc2c1Cl (racemic)

Ki (Glucagon receptor): 260 nM
Structure (SMILES): CC(C)CC(c1ccc(C(=O)NCCC(=O)O)cc1)n1ncc2cc(-c3ccc(C(F)(F)F)cc3)ccc21 (racemic)

Ki (Glucagon receptor): 29 nM
Structure (SMILES): Cc1c(-c2ccc(C(F)(F)F)cc2Cl)ccc2nn(C(CC(C)C)c3ccc(C(=O)NCCC(=O)O)cc3)cc12 (racemic)

Ki (Glucagon receptor): 1650 nM
Structure (SMILES): CC(C)CC(c1ccc(C(=O)NCCC(=O)O)cc1)n1ncc2cc(-c3cc(Cl)cc(Cl)c3)ccc21 (racemic)
